Data set [1] is described as follows: in vitro. Conditions: human, plasma, pH 7.4.
Description: Fraction unbound (%) in human plasma at pH 7.4 after 18 hrs by equilibrium dialysis
A short description of data set [2]: in vitro. Conditions: dog, plasma, pH 7.4.
Description: Fraction unbound (%) in dog plasma at pH 7.4 after 18 hrs by equilibrium dialysis
A short description of data set [3]: in vitro. Conditions: rat, plasma, pH 7.4.
Description: Fraction unbound (%) in rat plasma at pH 7.4 after 18 hrs by equilibrium dialysis
Data set [4] is described as follows: Fraction unbound (%) in mouse plasma at pH 7.4 after 18 hrs by equilibrium dialysis. The class given is ADME, cell-free.
Data set [5] relates to Plasma. The data set is described as follows: Fraction unbound (%) in human plasma in phosphate buffer after 30 mins by liquid scintillation counting. The class given is ADME, cell-free. Conditions: 0.5 h.
The test system of data set [6] is Plasma. Put plainly: Fraction unbound (%) in rat plasma in phosphate buffer after 30 mins by liquid scintillation counting. The class given is ADME, cell-free. The following applies: 0.5 h.

The structures appear in SMILES notation.

One may read the fraction unbound as free concentration divided by total concentration.

Take `COc1cc([C@@H]2c3cc4c(cc3[C@@H](O[C@@H]3O[C@@H]5CO[C@@H](C)O[C@H]5[C@H](O)[C@H]3O)[C@H]3COC(=O)[C@H]23)OCO4)cc(OC)c1O` [ETOPOSIDE]: the free fraction (fraction unbound) at 18 h in data set [1] is 0.049; in data set [2] it was 0.63; in data set [3], 0.52.

Turning to `CC[C@@H](c1ccccc1)c1c(O)c2ccccc2oc1=O`, the fraction unbound at 18 h is 0.11 in data set [4] and 0.007 in data set [1].

For `Cc1cc(O)c(C(=O)N[C@@H](C(=O)N[C@@H]2C(=O)N3C(C(=O)O)=C(CSc4nnnn4C)CS[C@H]23)c2ccc(O)cc2)cn1` [CEFPIRAMIDE], the results for the fraction unbound at 18 h in data set [1] and in data set [2] were 0.09 and 0.6, respectively.

For `CCOc1ccccc1OCCN[C@H](C)Cc1ccc(OC)c(S(N)(=O)=O)c1` [TAMSULOSIN], the Fu in data set [5] was 1%; in data set [6], 20%. Further, the fraction unbound at 18 h in data set [3] is 0.2.

As for `O=c1[nH]c2ccccc2n1C1CCN(CCCC(c2ccc(F)cc2)c2ccc(F)cc2)CC1` [PIMOZIDE], the fraction unbound at 18 h is 0.0016 in data set [1] and 0.0004 in data set [2].

Regarding `CO[C@@]1(NC(=O)C2SC(=C(C(N)=O)C(=O)O)S2)C(=O)N2C(C(=O)O)=C(CSc3nnnn3C)CS[C@@H]21` (stereo partly specified) [CEFOTETAN], the fraction unbound at 18 h came out at 0.09 in data set [1], 0.61 in data set [2] and 0.7 in data set [3].

On to `CCCC(CCC)C(=O)O` [VALPROIC ACID], for which the values for the fraction unbound at 18 h in data set [1] and in data set [3] were 0.052 and 0.88, respectively.

For the compound `CCCc1nn(C)c2c(=O)[nH]c(-c3cc(S(=O)(=O)N4CCN(C)CC4)ccc3OCC)nc12`, the fraction unbound at 18 h in data set [1] stood at 0.064; in data set [2], 0.26.

Turning to `c1ccc(C(O[C@@H]2CCCN(CCc3ccc4c(c3)OCO4)C2)c2ccccc2)cc1` [ZAMIFENACIN], the values for the fraction unbound at 18 h in data set [1] and in data set [3] were 0.0001 and 0.002, respectively.

The values above are taken from ChEMBL document CHEMBL3588839, “Species differences in drug plasma protein binding” (Medchemcomm, 2014).
